Test results published in patent US10272055B2, “Therapeutic compounds and methods” (Regents of the University of Minnesota, priority 2014, dated 2019).
Entries after “also recorded” stand apart in the source; their conditions may differ.

Columns and labels:
MCF-7 xenograft = MCF-7 xenograft in nude mice; type: in vivo; details: HBB 4 mg/kg ip daily vs PBS/vehicle
Protocol: (§1) FIG. 3A. MCF-7 xenograft with 3×10^6 cells in the 2nd mammary fat pad on day 0. HBB (4 mg/kg ip daily) (ν) or PBS (ρ) treatment began on day 1. * indicates P<0.05. FIG. 3B. MDAMB-231 xenograft with 1×10^6 cells in the 2nd mammary fat pad on day 0. HBB (4 mg/kg ip daily) (ν) or PBS (ρ) treatment began on day 1. N=20 mice per arm for each study; error bars are SEM.
MCF-7 cells were implanted in the mammary fat pad of 4-5 week mice and treatment was initiated when tumor size was ≥15 mm^3 by 2 sequential measurements with randomized assignment to the treatment arms.
(§2) FIG. 44A. Nude mice were inoculated with 3×10^6 MCF-7 cells and treated with vehicle (Δ) HBB at the MTD (4 mg/kg/day ip) (▪). (* indicates P<0.05). Error bars are SEM. […] The dose limiting toxicity was weight loss. At the MTD there was a well-tolerated 4% reduction of weight at 42 days (P<0.0001; data not shown). FIG. 44B. Nude mice were inoculated with 1×10^6MDA-MB-231 cells and treated with HBB at the MTD (4 mg/kg/day ip).

MCF7 = experiment: ROS production, DCFDA flow cytometry, MCF7; type: cell-based; details: MCF7, 20 uM HBB
Protocol: (§3) FIG. 33 illustrates that HBB induces reactive oxygen species (ROS) production in MCF7 and MDA-MB-231 lines. Cells in log phase growth in complete media were trypsinized and resuspended in complete media containing 20 uM DCFDA. After incubation at 37° C. for 30 minutes, cells were treated with 20 uM HBB or DMSO for 2.5 hours and analyzed by flow cytometer, monitoring fluorescence at 525 nm. Results are represented as histograms of cell count vs fluorescence intensity.

CYP3A4D3-24 = CYP3A4D3-24 (Homo sapiens, UniProt P08684); experiment: Spectral binding (spin shift) to CYP3A4D3-24; details: vs metformin
Sequence of CYP3A4D3-24 (P08684 with tags, fused parts or gaps): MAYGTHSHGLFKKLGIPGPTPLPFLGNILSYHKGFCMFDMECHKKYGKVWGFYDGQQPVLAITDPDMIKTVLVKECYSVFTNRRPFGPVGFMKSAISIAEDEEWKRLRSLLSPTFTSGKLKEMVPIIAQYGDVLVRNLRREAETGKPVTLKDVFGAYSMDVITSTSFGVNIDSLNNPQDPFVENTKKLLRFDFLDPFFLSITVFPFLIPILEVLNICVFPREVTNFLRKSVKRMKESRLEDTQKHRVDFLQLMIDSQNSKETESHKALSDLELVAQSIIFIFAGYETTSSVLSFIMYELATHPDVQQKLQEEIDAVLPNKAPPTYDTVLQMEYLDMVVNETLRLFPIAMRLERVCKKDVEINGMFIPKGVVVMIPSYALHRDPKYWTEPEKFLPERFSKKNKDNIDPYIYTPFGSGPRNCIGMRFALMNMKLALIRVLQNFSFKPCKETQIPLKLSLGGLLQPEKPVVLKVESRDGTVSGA

MDA-MB-231 xenograft = MDA-MB-231 xenograft in nude mice; type: in vivo; details: HBB 4 mg/kg ip daily vs PBS/vehicle
Protocol: as §1, §2

MDA-MB-231 line = experiment: 14,15-EET protection against biguanide growth inhibition, MTT, MDA-MB-231; type: cell-based; details: MDA-MB-231, 1 uM 14,15-EET, 24 hours
Protocol: Cells were plated in complete media in the presence of serum (10% FBS) and cultured at 37° C. with 5% CO2 and treated with HBB for 24 hours in the presence and absence of 1 uM 14,15-EET. Growth was then measured at 24 hours by MTT assay.
Results are expressed as mean±standard deviation (n=8).

MDA-MB-231 [1] = experiment: ROS production, DCFDA flow cytometry, MDA-MB-231; type: cell-based; details: MDA-MB-231, 20 uM HBB
Protocol: as §3

MCF7 line = experiment: 14,15-EET protection against biguanide growth inhibition, MTT, MCF7; type: cell-based; details: MCF-7, exogenous (±)-14,15-EET (1 uM)
Protocol: Cells were plated in complete media in the presence of serum (10% FBS) and cultured at 37° C. with 5% CO2 and treated with biguanides for 24 hours in the presence or absence of 1 uM 14,15-EET. Growth was then measured at 24 hour by MTT assay.

STAT3 = STAT3 phosphorylation Western blot in MCF7; type: cell-based
Protocol: Western blotting analysis was performed (C=control, M=metform and H=HBB).
Total protein was extracted and analyzed by Western-blotting with GAPDH as an internal control.

CD31 = experiment: Angiogenesis by CD31 staining, MDA-MB-231 xenograft tumors; type: in vivo, mice; details: MDA-MB-231 model, HBB 4 mg/kg/day ip vs PBS
Protocol: Xenogaft tumors from the MCF-7 and MDA-MB-231 models were tested for inhibition of angiogenesis by HBB using CD31 staining.
The samples were cryosectioned at 6 um and fixed with chilled 100% acetone for 10 minutes. Samples were blocked with 3% donkey serum in PBS for 30 minutes at 37 C.
The antibody used to stain CD-31 was from BD Pharmingen PE Rat anti Mouse CD31, catalog number 553373. It was used at a dilution of 1:50 in blocking buffer for 1 hour at 37 C.
The samples were then stained for 10 minutes with DAPI at a concentration of 1:2000, from Life Technologies, catalog number D1306.
Each sample was imaged in 4-5 areas. There were 3 samples per condition, PBS vs HBB.

MCF-7 = experiment: HBB plus paclitaxel combination, MTT, Chou-Talalay analysis; type: cell-based; details: MCF-7, HBB vs paclitaxel = 800:1, 24 hours
Protocol: Cells were seeded into 96-well plates at 3,000 cells/well and grown over night. The cells were then treated with different doses of HBB, paclitaxel and combination of the two agents at a constant ratio (HBB vs paclitaxel=800:1). The treatments were conducted for each condition in quadruplicate. […] Combined dose-response curves were fitted to Chou-Talalay lines, and Chou-Talalay combination indices (CIs) were calculated for each fraction affected (Fa) using the equation CI=(D1/Dx1)+(D2/Dx2)+(D1)(D2)/[(Dx1)(Dx2)], where Dx1 and Dx2 are the HBB and paclitaxel doses, respectively, that are required for achieving a particular Fa, and D1 and D2 are the doses of the two agents (combined treatment) required for achieving the same Fa. For each Fa, CI values of 0.8 and 1.2 are cutoffs for synergy and antagonism, respectively (See FIG. 42).

MDA-MB-231 [2] = experiment: Cell cycle analysis by flow cytometry, MDA-MB-231; type: cell-based; details: MDA-MB-231, HBB 20 uM, 6 hours
Protocol: Cells in log phase growth treated with HBB (20 uM) or DMSO for 6 hours were trypsinized and fixed in 70% ethanol at 4° C. overnight. The cells were washed with cold PBS and resuspended in Nicoletti buffer (50 μg/ml propidium iodide, 0.1% Triton X-100, 0.1% sodium citrate, pH 7.4, and 1 mg/ml RNase). The samples were then analyzed by flow cytometry (BD Biosciences), and data were analyzed using FlowJo software (Tree Star). Representative profile are shown.

[3] = Tolerability in xenograft mice (MTD, weight); details: mouse, in vivo
Description: […]. (* indicates P<0.05). Error bars are SEM. […] The dose limiting toxicity was weight loss. At the MTD there was a well-tolerated 4% reduction of weight at 42 days (P<0.0001; data not shown). […].

Structure (SMILES): CCCCCCNC(=N)NC(=N)NCc1ccccc1 [HBB, N1-hexyl-N5-benzyl biguanide]
- tumor growth, MCF-7 xenograft (MCF-7 xenograft): significant reduction in early engraftment/tumor growth; also recorded: only in the MCF-7 model; also recorded: inhibits the ER+ MCF-7
- ROS production relative to DMSO (MCF7): induced significant ROS production
- fold more potent than metformin, delta 3-24 CYP3A4 spin shift (CYP3A4D3-24): ~12 fold
- tumor growth, MDA-MB-231 xenograft (MDA-MB-231 xenograft): tumor growth wasn't inhibited; also recorded: no significant difference between the HBB and vehicle growth curves
- rescue of MDA-MB-231 growth by 14,15-EET in the presence of the biguanide (MDA-MB-231 line): no protection
- ROS production relative to DMSO (MDA-MB-231 [1]): induced significant ROS production
- rescue of MCF-7 growth by 14,15-EET in the presence of the biguanide (MCF7 line): partially restores growth; also recorded: partial rescue
- STAT3 phosphorylation relative to control (STAT3; MCF7, 6 hours, HBB 20 uM, metformin 10 uM): decreased phosphorylation of STAT3
- fold more potent than metformin, inhibition of Stat3 phosphorylation (STAT3; vs metformin): ~50 fold
- angiogenesis (CD31 staining) (CD31): inhibited angiogenesis in both models
- combination index plot, HBB with Taxol (MCF-7): synergy
- cell cycle arrest (MDA-MB-231 [2]): induces G0/G1 and G2/M cell cycle arrest
- dose limiting toxicity [3]: weight loss
- MTD at 42 days ([3]; nude, ip daily, read-out: maximum tolerated dose (MTD)): 4 mg/kg
